In patent publication US20240025906A1 (NEURON23, INC., priority 2022, published 2024):
Like-named read-outs stand apart in the source and are kept apart here. One block for each compound: values may come before it.

What was measured:
[1] = target: T1, TYK2 JH2 (Homo sapiens, UniProt P29597); experiment: TYK2 JH2 binding assay (KINOMEscan KdELECT competitive binding); conditions: TYK2 JH2 domain
T1 construct: purchased DiscoverX (KINOMEscan KdELECT service); host or cells: E. coli BL21-derived (T7 phage display) or HEK-293
In short: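 Kd values come from qPCR measurement of kinase retained on an immobilized-ligand resin after 1 h room-temperature competition with compound in an 11-point, 3-fold series.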

[2] = system: JAK1/TYK2 pSTAT5 (Tyr694/699) in THP-1 cell line; experiment: IFNa-stimulated JAK1/TYK2 pSTAT5 (Tyr694/699) inhibition cellular assay, AlphaLISA; format: cell-based; conditions: Homo sapiens, THP-1 cells, AlphaLISA (Assay B)
In short: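 The readout is AlphaLISA signal at 615 nm for phospho-STAT5 in THP-1 lysates after IFNa stimulation (added at 100 ng/mL, 30 min, 37 °C). Cells had compound for 1 h beforehand across eight 6-fold concentrations up to 10000 nM final. IC50s are 4PL fits with bottom and Hill slope constrained.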

[3] = KINOMEscan KdELECT (Assay A), read-out: Biochemical TYK2_DiscoverX_JH2_BND_Kd
[4] = IFNa-stimulated, read-out: Cellular_THP1_IFNa-pSTATS_TYK2
[5] = DiscoverX KINOMEscan KdELECT (Assay A), read-out: Biochemical TYK2_DiscoverX_JH2_BND_Kd
[6] = KINOMEscan KdELECT (Assay A), read-out: Biochemical TYK2_JH2_Kd
[7] = IFNa-stimulated, read-out: Cellular THP1_IFNa-pSTATS_IC50
[8] = IFNa-stimulated pSTAT5 (Tyr694/699), read-out: Cellular_THP1_IFNa-pSTATS_TYK2

T1 sequence (P29597 589-875 limits assumed): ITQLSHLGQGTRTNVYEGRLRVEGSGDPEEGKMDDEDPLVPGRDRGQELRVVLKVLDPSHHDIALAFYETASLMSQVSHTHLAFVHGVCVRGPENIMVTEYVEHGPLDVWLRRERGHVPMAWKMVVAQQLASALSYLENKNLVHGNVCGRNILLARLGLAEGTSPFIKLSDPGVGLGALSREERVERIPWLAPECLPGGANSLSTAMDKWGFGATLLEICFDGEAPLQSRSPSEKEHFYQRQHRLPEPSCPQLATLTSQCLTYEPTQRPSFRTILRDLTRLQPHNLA

Structure (SMILES): CNc1ncc(C#Cc2ccc3cc(COC)n(C)c3c2)c2cc(NC(=O)C3CC3)ncc12 [Example 716, N-(5-((2-(methoxymethyl)-1-methyl-1H-indol-6-yl)ethynyl)-8-(methylamino)-2,7-naphthyridin-3-yl)cyclopropanecarboxamide]
Kd [1, 3]: ≤ 100 nM
IC50 [2, 4]: ≤ 500 nM

Structure (SMILES): CNc1ncc(-c2nc3cc(OC)ccc3o2)c2cc(Nc3ccc(C(C)(C)O)cn3)ncc12 [Example 375, 2-(6-((5-(5-methoxybenzo[d]oxazol-2-y1)-8-(methylamino)-2,7-naphthyridin-3-yl)amino)pyridin-3-yl)propan-2-ol]
Kd [1, 5]: ≤ 100 nM
IC50 [2, 4]: ≤ 500 nM

Structure (SMILES): CNc1ncc(C#Cc2ncc(OC)cc2CO)c2cc(NC(=O)C3CC3)ncc12 [Example 967, N-[5-[2-[3-(hydroxymethyl)-5-methoxy-2-pyridyl]ethynyl]-8-(methylamino)-2,7-naphthyridin-3-yl]cyclopropanecarboxamide]
Kd [1, 3]: ≤ 100 nM
IC50 [2, 4]: ≤ 500 nM

Structure (SMILES): CNc1ncc(-c2nc(C)co2)c2cc(NC(=O)C3CC3)ncc12 [Example 32, N-(8-(methylamino)-5-(4-methyloxazol-2-yl)-2,7-naphthyridin-3-yl)cyclopropanecarboxamide]
Kd [1, 6]: ≤ 100 nM
IC50 [2, 7]: ≤ 500 nM

Structure (SMILES): CNc1ncc(C#Cc2ncc(OC)cc2C)c2cc(NC(=O)C3CC3)ncc12 [Example 664, N-(5-((5-methoxy-3-methylpyridin-2-yl)ethynyl)-8-(methylamino)-2,7-naphthyridin-3-yl)cyclopropanecarboxamide]
Kd [1, 3]: ≤ 100 nM
IC50 [2, 4]: ≤ 500 nM

Structure (SMILES): CNc1ncc(C#Cc2ccc3ocnc3c2)c2cc(NC(=O)C3CC3)ncc12 [Example 622, N-(5-(benzo[d]oxazol-5-ylethynyl)-8-(methylamino)-2,7-naphthyridin-3-yl)cyclopropanecarboxamide]
Kd [1, 3]: ≤ 100 nM
IC50 [2, 4]: ≤ 500 nM

Structure (SMILES): CNc1ncc(C#Cc2ccc(N3CCOC3=O)cc2)c2cc(NC(=O)C3CC3)ncc12 [Example 675, N-(8-(methylamino)-5-((4-(2-oxooxazolidin-3-yl)phenyl)ethynyl)-2,7-naphthyridin-3-yl)cyclopropanecarboxamide]
Kd [1, 3]: ≤ 100 nM
IC50 [2, 4]: ≤ 500 nM

Structure (SMILES): CNc1ncc(-c2nc3ccc(N4CCO[C@@H](C(C)(C)O)C4)cn3n2)c2cc(NC(=O)C3CC3)ncc12 [Example 1027]
Kd [1, 3]: ≤ 100 nM
IC50 [2, 8]: ≤ 500 nM

Structure (SMILES): CNc1ncc(-c2nc3ccccn3n2)c2cc(Nc3ccccn3)ncc12 [Example 557, 4-([1,2,4]triazolo[1,5-a]pyridin-2-yl)-N^1-methyl-N^6-(pyridin-2-yl)-2,7-naphthyridine-1,6-diamine]
Kd [1, 5]: ≤ 100 nM
IC50 [2, 4]: ≤ 500 nM

Structure (SMILES): CNc1ncc(C#Cc2cnc3ccccn23)c2cc(NC(=O)C3CC3)ncc12 [Example 633, N-(5-(imidazo[1,2-a]pyridin-3-ylethynyl)-8-(methylamino)-2,7-naphthyridin-3-yl)cyclopropanecarboxamide]
Kd [1, 3]: ≤ 100 nM
IC50 [2, 4]: ≤ 500 nM

Structure (SMILES): CNc1ncc(-c2ccnn2Cc2ccccc2)c2cc(NC(=O)C3CC3)ncc12 [Example 20, N-(5-(1-benzyl-1H-pyrazol-5-yl)-8-(methylamino)-2,7-naphthyridin-3-yl)cyclopropanecarboxamide]
Kd [1, 6]: ≤ 100 nM
IC50 [2, 7]: > 500 nM

Structure (SMILES): CNc1ncc(C2=Cc3ccccc3CO2)c2cc(NC(=O)C3CC3)ncc12 [Example 850, N-(5-(1H-isochromen-3-yl)-8-(methylamino)-2,7-naphthyridin-3-yl)cyclopropanecarboxamide]
Kd [1, 3]: ≤ 100 nM
IC50 [2, 4]: ≤ 500 nM

Structure (SMILES): CNc1ncc(-c2nc3ccc(N4CCOCC4)cn3n2)c2cc(Nc3ccccn3)ncc12 [Example 536, N^1-methyl-4-(6-morpholino-[1,2,4]triazolo[1,5-a]pyridin-2-yl)-N^6-(pyridin-2-yl)-2,7-naphthyridine-1,6-diamine]
Kd [1, 5]: ≤ 100 nM
IC50 [2, 4]: ≤ 500 nM

Structure (SMILES): CNc1ncc(-c2nc3cc([C@]4(C)CCCO4)ccc3o2)c2cc(NC(=O)C3CC3)ncc12 [Example 948, (S)—N-(8-(methylamino)-5-(5-(2-methyltetrahydrofuran-2-yl)benzo[d]oxazol-2-yl)-2,7-naphthyridin-3-yl)cyclopropanecarboxamide]
Kd [1, 3]: ≤ 100 nM
IC50 [2, 4]: ≤ 500 nM

Structure (SMILES): CNc1ncc(-c2nc3c(Cl)cccc3o2)c2cc(NC(=O)C3CC3)ncc12 [Example 204, N-(5-(4-chlorobenzo[d]oxazol-2-yl)-8-(methylamino)-2,7-naphthyridin-3-yl)cyclopropanecarboxamide]
Kd [1, 5]: ≤ 100 nM
IC50 [2, 4]: ≤ 500 nM

Structure (SMILES): CNc1ncc(-c2nc3ccc(N4CCOCC4)cn3n2)c2cc(Nc3ccc(C(C)(C)O)cn3)ncc12 [Example 538, 2-(6-((8-(methylamino)-5-(6-morpholino-[1,2,4]triazolo[1,5-a]pyridin-2-yl)-2,7-naphthyridin-3-yl)amino)pyridin-3-yl)propan-2-ol]
Kd [1, 5]: ≤ 100 nM
IC50 [2, 4]: ≤ 500 nM

Structure (SMILES): CNc1ncc(/C=C/c2ccc(OCCOC)cc2)c2cc(NC(=O)C3CC3)ncc12 [Example 782, (E)-N-(5-(4-(2-methoxyethoxy)styryl)-8-(methylamino)-2,7-naphthyridin-3-yl)cyclopropanecarboxamide]
Kd [1, 3]: ≤ 100 nM
IC50 [2, 4]: ≤ 500 nM

Now from value to compound:

Kd [1, 3]: ≤ 100 nM
IC50 [2, 4]: > 500 nM
Structure (SMILES): CNc1ncc(CCc2cc(OC)cc(-c3ncnn3C)c2)c2cc(NC(=O)C3CC3)ncc12 [Example 826, N-(5-(3-methoxy-5-(1-methyl-1H-1,2,4-triazol-5-yl)phenethyl)-8-(methylamino)-2,7-naphthyridin-3-yl)cyclopropanecarboxamide]

Kd [1, 5]: ≤ 100 nM
IC50 [2, 4]: ≤ 500 nM
Structure (SMILES): [2H]C([2H])([2H])Nc1ncc(-c2nc3ccc(N4CCOCC4)cn3n2)c2cc(NC(=O)C3(F)CC3)ncc12 [Example 571, 1-fluoro-N-(8-((methyl-d3)amino)-5-(6-morpholino-[1,2,4]triazolo[1,5-a]pyridin-2-yl)-2,7-naphthyridin-3-yl)cyclopropane-1-carboxamide]

Kd [1, 5]: ≤ 100 nM
IC50 [2, 4]: ≤ 500 nM
Structure (SMILES): CNc1ncc(-c2nc3c(F)cc(C)cn3n2)c2cc(NC(=O)C3CC3)ncc12 [Example 505, N-(5-(8-fluoro-6-methyl-[1,2,4]triazolo[1,5-a]pyridin-2-yl)-8-(methylamino)-2,7-naphthyridin-3-yl)cyclopropanecarboxamide]

Kd [1, 3]: ≤ 100 nM
IC50 [2, 4]: ≤ 500 nM
Structure (SMILES): CNc1ncc(C#Cc2ccc3ncn(CCCC#N)c3c2)c2cc(NC(=O)C3CC3)ncc12 [Example 694, N-(5-((1-(3-cyanopropyl)-1H-benzo[d]imidazol-6-yl)ethynyl)-8-(methylamino)-2,7-naphthyridin-3-yl)cyclopropanecarboxamide]

Kd [1, 5]: ≤ 100 nM
IC50 [2, 4]: ≤ 500 nM
Structure (SMILES): CNc1ncc(-c2nc3cc(-c4nc[nH]n4)ccc3o2)c2cc(NC(=O)C3CC3)ncc12 [Example 445, N-(5-(5-(1H-1,2,4-triazol-3-yl)benzo[d]oxazol-2-yl)-8-(methylamino)-2,7-naphthyridin-3-yl)cyclopropanecarboxamide]

Kd [1, 5]: ≤ 100 nM
IC50 [2, 4]: ≤ 500 nM
Structure (SMILES): [2H]C([2H])([2H])Nc1ncc(-c2nc3ccc(N4CCO[C@@H](C)C4)cn3n2)c2cc(NC(=O)[C@H]3C[C@H]3C(F)F)ncc12 (single isomer, unassigned) [Example 574]

Kd [1, 6]: ≤ 100 nM
IC50 [2, 7]: > 500 nM
Structure (SMILES): CNc1ncc(-c2ocnc2C)c2cc(NC(=O)C3CC3)ncc12 [Example 30, N-(8-(methylamino)-5-(4-methyloxazol-5-yl)-2,7-naphthyridin-3-yl)cyclopropanecarboxamide]

Kd [1, 6]: 100 to 1000 nM
IC50 [2, 7]: > 500 nM
Structure (SMILES): CNc1ncc(-c2ccccc2C#N)c2cc(NC(=O)C3CC3)ncc12 [Example 42, N-(5-(2-cyanophenyl)-8-(methylamino)-2,7-naphthyridin-3-yl)cyclopropanecarboxamide]

Kd [1, 3]: ≤ 100 nM
IC50 [2, 4]: > 500 nM
Structure (SMILES): CNc1ncc(C2=CCc3ccccc3O2)c2cc(NC(=O)C3CC3)ncc12 [Example 849, N-(5-(4H-chromen-2-yl)-8-(methylamino)-2,7-naphthyridin-3-yl)cyclopropanecarboxamide]

Kd [1, 3]: ≤ 100 nM
IC50 [2, 4]: ≤ 500 nM
Structure (SMILES): CNc1ncc(-c2nn3c(C)ncc3o2)c2cc(NC(=O)C3CC3)ncc12 [Example 873, N-(8-(methylamino)-5-(5-methylimidazo[5,1-b][1,3,4]oxadiazol-2-yl)-2,7-naphthyridin-3-yl)cyclopropanecarboxamide]

Kd [1, 5]: ≤ 100 nM
IC50 [2, 4]: ≤ 500 nM
Structure (SMILES): CNc1ncc(-c2nc3cc(/C(C)=N/OC)ccc3o2)c2cc(NC(=O)C3CC3)ncc12 [Example 463, (E)-N-(5-(5-(1-(methoxyimino)ethyl)benzo[d]oxazol-2-yl)-8-(methylamino)-2,7-naphthyridin-3-yl)cyclopropanecarboxamide]

Kd [1, 3]: ≤ 100 nM
IC50 [2, 8]: ≤ 500 nM
Structure (SMILES): CNc1ncc(C#Cc2ccc(OC)cn2)c2cc(NC(=O)C3CCOCC3)ncc12 [Example 1081, N-[5-[2-(5-methoxy-2-pyridyl)ethynyl]-8-(methylamino)-2,7-naphthyridin-3-yl]tetrahydropyran-4-carboxamide]
